According to patent US20260035360A1, “INHIBITORS OF MYC AND USES THEREOF” (Northwestern University, priority 2022, published 2026):

What was measured:
ATF4 = ATF4 protein level in PC3 cells by western blot, 24 hr; assay type: cell-based; conditions: Homo sapiens, PC-3, PC3, 24 h, Actin control, read-out: Relative ATF4 protein at 10 μM (fold change, PC3 24 h)
Method: (§1) Table 2. Biological data of selected compounds. For IC50 determination. PC3 and PC12 cells were treated with increasing concentrations of the indicated compounds for 72 hrs and cell viability assessed using CellTitreGlo Assay (Promega). For MYC and ATF4 protein level determination. PC3 cells were treated with the indicated compounds for 24 hr sand cell lysates processed for western blot with MYC and ATF4 antibodies using Actin as a control. Quantification analyses were performed by Biorad ChemiDoc Imager and Bio-Rad Image Lab software.

[1] = Plasma pharmacokinetics after 1 mg/kg PO in female mice; conditions: mouse; for half-life: female mice
Method: (§3) PK: Plasma levels of compounds were determined after 1 mg/kg dosing PO in female BALB/C mice.
(§4) Plasma levels of compounds were determined after 1 mg/kg dosing PO in female BALB/C mice.

PC3 cells = assay: PC3 cell viability, CellTitreGlo Assay, 72 hrs; assay type: cell-based; conditions: Homo sapiens, PC-3
Method: as §1

MYC = biological target: T1, MYC (Homo sapiens, UniProt P01106); assay: MYC protein level in PC3 cells by western blot, 24 hr; assay type: cell-based; conditions: PC-3, 24 h, PC3, 24 h, Actin control, read-out: Relative MYC protein at 10 μM (%, PC3 24 h)
T1 construct: endogenous in cells; host or cells: PC3 cells
T1 sequence (P01106 whole entry): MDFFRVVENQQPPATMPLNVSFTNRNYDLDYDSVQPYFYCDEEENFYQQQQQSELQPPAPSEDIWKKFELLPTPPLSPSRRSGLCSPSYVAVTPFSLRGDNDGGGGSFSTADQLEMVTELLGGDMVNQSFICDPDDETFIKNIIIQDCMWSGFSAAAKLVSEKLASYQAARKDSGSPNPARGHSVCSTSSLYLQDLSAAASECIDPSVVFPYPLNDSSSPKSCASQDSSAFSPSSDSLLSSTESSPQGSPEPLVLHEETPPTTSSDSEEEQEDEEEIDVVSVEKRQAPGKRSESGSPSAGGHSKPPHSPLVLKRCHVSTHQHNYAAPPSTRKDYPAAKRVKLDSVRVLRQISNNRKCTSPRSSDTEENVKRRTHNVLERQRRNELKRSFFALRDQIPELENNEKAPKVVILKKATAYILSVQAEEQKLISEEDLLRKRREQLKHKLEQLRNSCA
Method: as §1

PC12 cells = assay: PC12 cell viability, CellTitreGlo Assay, 72 hrs; assay type: cell-based; conditions: for IC50: Rattus norvegicus, PC-12
Method: as §1

[2] = female, mouse, in vivo, po, 1 mg/kg
Method: as §3, §4

MycCaP;Pten-KO cells = assay: Tumor growth inhibition, MycCaP;Pten-KO subcutaneous allograft in male FVB/N mice; assay type: in vivo; conditions: after 14 d; for TGI: QD, Table 7; for Efficacy MycCaP;Pten-ko (TGI @ 100 mg/kg/d po): male FVB/N mice, Table 3
Method: (§2) Table 3. Biological data of selected compounds. […] Tumor growth inhibition (TGI) was determined after 14 d.
Table 7. Tumor Growth Inhibition data. […] Tumor growth inhibition (TOD was determined after 14 d.

[3] = Toxicity (weight loss) in tumor-bearing mice; assay type: in vivo; conditions: weight loss class
Method: as §2

Structure (SMILES)	fold induction at 10 µM (ATF4)	AUC(0-t) [1] [ng·h/mL]	Cmax [1] [ng/mL]	Tmax [1] [h]	IC50 (PC3 cells) [µM]	remaining activity at 10 µM (MYC) [%]	AUMC0-t [2] [h*h*ng/mL]	Efficacy MycCaP;Pten-ko (TGI @ 100 mg/kg/d po) (MycCaP;Pten-KO cells)	IC50 (PC12 cells) [µM]	Toxicity @ 100 mg/kg/d [3]	other results
Cn1nc(C(F)(F)F)cc1-c1ccc(COc2ccc(Cl)cc2)c(-c2ccc(Cl)c(C(F)(F)F)c2)c1O [NUCC-0202416]	9.3	5760	244	8	4.71	38.9	88636	–	–	–	PC12 IC50 (PC12 cells): inactive
Cn1nc(C(F)(F)F)c(Cl)c1-c1ccc(COc2ccc(Cl)cc2)c(-c2ccc(Cl)c(C(F)(F)F)c2)c1O [NUCC-0226606]	9.7 ± 1.2	15200	841	12	2.23	38.2 ± 3.9	177148	75	16.6	–	TGI (MycCaP;Pten-KO cells; 10 mg/kg p.o.): 43.1%; TGI (MycCaP;Pten-KO cells; 30 mg/kg p.o.): 56.4%; TGI (MycCaP;Pten-KO cells; 100 mg/kg p.o.): 74.6%
Cn1nc(C(F)(F)F)cc1-c1ccc(OCc2ccc(Cl)cc2)c(-c2ccc(Cl)c(C(F)(F)F)c2)c1O [MYCi975, reference compound]	–	–	–	–	2.9 ± 0.5	–	–	50	> 16	− (−, 0-5% weight loss)	–
Cn1nc(C(F)(F)F)c(Cl)c1-c1cc(Cl)c(Oc2ccc(Cl)cc2)c(-c2ccc(Cl)c(C(F)(F)F)c2)c1O [NUCC-0227246]	23.5	–	–	–	0.91	37.3	–	–	5.78	–	–
Cn1nc(C(F)(F)F)cc1-c1cc(Cl)c(Oc2ccc(Cl)cc2)c(-c2ccc(Cl)c(C(F)(F)F)c2)c1O [NUCC-0227245]	20.3 ± 3.7	–	–	–	0.49	37.1 ± 1	–	–	3.81	+++ (+++, >20% weight loss or death)	–
Cn1nc(C(F)(F)F)cc1-c1c(F)cc(OCc2ccc(Cl)cc2)c(-c2ccc(Cl)c(C(F)(F)F)c2)c1O [NUCC-0226545]	4.7	4760	472	4	2.2	19.5	36107	–	10.8	–	MRT inf [1]: 7.57 h; half-life ([1]; T1/2, Table 4, PO 1 mg/kg): 4.3 h; half-life ([1]; T1/2—range*, Table 4, PO 1 mg/kg): 8 to 24 h
Cn1nc(C#N)cc1-c1cc(Cl)c(COc2ccc(Cl)cc2)c(-c2ccc(Cl)c(C(F)(F)F)c2)c1O [NUCC-0227065]	13.4	–	–	–	0.74	35.4	–	–	3.8	–	–
Cc1ccc(C2(Oc3ccc(-c4cc(C(F)(F)F)nn4C)c(O)c3-c3ccc(Cl)c(C(F)(F)F)c3)CC2)cc1 [NUCC-0226495]	11.5	–	–	–	3.8	15.6	–	–	597	–	–
Cn1nc(C(F)(F)F)cc1-c1cc(C(F)(F)F)c(COc2ccc(Cl)cc2)c(-c2ccc(Cl)c(C(F)(F)F)c2)c1O [NUCC-0227244]	22.8	–	–	–	0.57	39.5	–	–	4.55	++ (++, 15-20% weight loss)	–
Cn1nc(C(F)(F)F)cc1-c1cc(Cl)c(CNc2ccc(Cl)cc2)c(-c2ccc(Cl)c(C(F)(F)F)c2)c1O [NUCC-0227062]	15	–	–	–	0.964	40.7	–	–	2.31	–	–
Cn1nc(C(F)(F)F)c(Cl)c1-c1cc(Cl)c(COc2ccc(Cl)cc2)c(-c2ccc(Cl)c(C(F)(F)F)c2)c1O [NUCC-0227037]	15.1	4000	202	4	0.96	33.6	53530	80	11.1	–	AUC(0-inf) [1]: 4200 ng·h/mL; MRT inf [1]: 15.8 h; half-life ([1]; T1/2, Table 6, PO 1 mg/kg): 10.7 h; half-life ([1]; T1/2—range*, Table 6, PO 1 mg/kg): 8 to 48 h; TGI (MycCaP;Pten-KO cells; 10 mg/kg p.o.): 43.99%; TGI (MycCaP;Pten-KO cells; 30 mg/kg p.o.): 57.24%; TGI (MycCaP;Pten-KO cells; 100 mg/kg p.o.): 81.48%; AUMC0-∞ [2]: 66373 h*h*ng/mL
Cn1nc(C(F)(F)F)cc1-c1cc(Cl)c(COc2ccc(Cl)cc2)c(-c2ccc(Cl)c(C(F)(F)F)c2)c1O [NUCC-0226605]	10.3 ± 1.5	4830	274	8	1	34.7 ± 3.2	49995	90	10.5	++ (++, 15-20% weight loss)	TGI (MycCaP;Pten-KO cells; 10 mg/kg p.o.): 56.29%; TGI (MycCaP;Pten-KO cells; 30 mg/kg p.o.): 65.67%; TGI (MycCaP;Pten-KO cells; 100 mg/kg p.o.): 92.51%
